From patent US10280169B2, “Biaryl bruton's tyrosine kinase inhibitors” (BIOGEN MA INC., priority 2013, dated 2019)

Columns and labels:
pBTK = target: T1, pBTK (Homo sapiens, UniProt Q06187); assay: In vitro PD assay in whole blood (pBTK assay); assay type: cell-based; settings: 30 min at 37° C.
T1 construct: Heparinized venous blood was purchased from Bioreclamation, Inc. or SeraCare Life Sciences; tissue Bioreclamation, Inc. or SeraCare Life Sciences; host or cells: heparinized venous whole blood
T1 sequence (Q06187 whole entry): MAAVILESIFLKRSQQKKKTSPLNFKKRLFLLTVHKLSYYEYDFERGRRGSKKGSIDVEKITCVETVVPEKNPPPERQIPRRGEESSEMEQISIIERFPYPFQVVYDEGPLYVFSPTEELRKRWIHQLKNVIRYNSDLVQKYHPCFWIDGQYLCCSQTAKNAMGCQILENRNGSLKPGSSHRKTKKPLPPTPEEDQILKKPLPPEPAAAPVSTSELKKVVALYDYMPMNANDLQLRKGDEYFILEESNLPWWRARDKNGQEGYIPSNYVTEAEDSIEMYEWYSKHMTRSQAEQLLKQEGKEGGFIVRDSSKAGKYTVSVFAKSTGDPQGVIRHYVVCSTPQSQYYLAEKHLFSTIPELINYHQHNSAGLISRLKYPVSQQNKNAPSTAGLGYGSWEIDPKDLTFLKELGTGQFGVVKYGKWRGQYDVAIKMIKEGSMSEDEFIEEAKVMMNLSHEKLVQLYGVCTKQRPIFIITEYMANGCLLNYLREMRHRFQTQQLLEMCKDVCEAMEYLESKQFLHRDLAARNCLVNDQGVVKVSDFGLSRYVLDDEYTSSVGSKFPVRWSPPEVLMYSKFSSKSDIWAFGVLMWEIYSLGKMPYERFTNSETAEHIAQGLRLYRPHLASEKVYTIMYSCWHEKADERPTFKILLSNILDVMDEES
Method: Heparinized venous blood was purchased from Bioreclamation, Inc. or SeraCare Life Sciences and shipped overnight. Whole blood was aliquoted into 96-well plate and “spiked” with serial dilutions of test compound in DMSO or with DMSO without drug. The final concentration of DMSO in all wells was 0.1%. The plate was incubated at 37° C. for 30 min. Lysis buffer containing protease and phosphatase inhibitors was added to the drug-containing samples and one of the DMSO-only samples (+PPi, high control), while lysis buffer containing protease inhibitors was added to the other DMSO-only samples (−PPi, low control). All of the lysed whole blood samples were subjected to the total BTK capture and phosphotyrosine detection method described in Example 30. ECL values were graphed in Prism and a best-fit curve with restrictions on the maximum and minimum defined by the +PPi high and −PPi low controls was used to estimate the test compound concentration that results in 50% inhibition of ECL signal by interpolation.
In some instances where a compound tested has activity “D”, other structurally similar compounds beyond the measurable limits of the assay are not included in Table 2.

BTK = target: T2, BTK (Homo sapiens, UniProt Q06187); assay: In vitro BTK kinase assay: BTK-POLYGAT-LS assay; assay type: biochemical; settings: 10 uM ATP, read-out: IC50 (10 uMATP)
T2 construct: purchased Upstate 14-552
T2 sequence (Q06187 whole entry): as above

Structure (SMILES)	IC50 (pBTK)	IC50 (BTK)
O=C(N[C@H]1CCCc2cc(-c3ncnc4[nH]ncc34)ccc21)c1cc2c(s1)CCCC2 [Example I-87, (S)—N-(6-(1H-Pyrazolo[3,4-d]pyrimidin-4-yl)-1,2,3,4-tetrahydronaphthalen-1-yl)-4,5,6,7-tetrahydrobenzo[b]thiophene-2-carboxamide]	1500 to 10000 nM	< 10 nM
Cc1cc(-c2ncnc3[nH]ccc23)ccc1C(C)NC(=O)c1cc2c(s1)CCCC2 (centres unmarked) [Example I-78, N-(1-(2-methyl-4-(7H-pyrrolo[2,3-d]pyrimidin-4-yl)phenyl)ethyl)-4,5,6,7-tetrahydrobenzo[b]thiophene-2-carboxamide]	1500 to 10000 nM	< 10 nM
Cc1cc(-c2ncnc3cc(-c4cnn(C)c4)[nH]c23)ccc1C(CO)NC(=O)c1cc2c(s1)CCOC2 (centres unmarked) [Example I-45, N-(2-hydroxy-1-(2-methyl-4-(6-(1-methyl-1H-pyrazol-4-yl)-5H-pyrrolo[3,2-d]pyrimidin-4-yl)phenyl)ethyl)-6,7-dihydro-4H-thieno[3,2-c]pyran-2-carboxamide]	1500 to 10000 nM	10 to 99 nM
Cc1cc(-c2ncnc3[nH]c(-c4cnn(C)c4)cc23)ccc1C(CO)NC(=O)c1cnc(C(C)(C)C)s1 (centres unmarked) [Example I-31, 2-(tert-butyl)-N-(2-hydroxy-1-(2-methyl-4-(6-(1-methyl-1H-pyrazol-4-yl)-7H-pyrrolo[2,3-d]pyrimidin-4-yl)phenyl)ethyl)thiazole-5-carboxamide]	500 to 1500 nM	< 10 nM
O=C(NC1CCCc2cc(-c3ncnc4[nH]ccc34)ccc21)c1cc2c(s1)CCCC2 (centres unmarked) [Example I-16, N-(6-(7H-pyrrolo[2,3-d]pyrimidin-4-yl)-1,2,3,4-tetrahydronaphthalen-1-yl)-4,5,6,7-tetrahydrobenzo[b]thiophene-2-carboxamide]	1500 to 10000 nM	10 to 99 nM
Cc1cc(-c2ncnc3cc(C4=CCS(=O)(=O)CC4)[nH]c23)ccc1CNC(=O)c1cnc(C(C)(C)C)s1 [Example I-22, 2-(tert-butyl)-N-(4-(6-(1,1-dioxido-3,6-dihydro-2H-thiopyran-4-yl)-5H-pyrrolo[3,2-d]pyrimidin-4-yl)-2-methylbenzyl)thiazole-5-carboxamide]	< 500 nM	< 10 nM
Cc1cc(-c2ncnc3[nH]ncc23)ccc1CNC(=O)c1nc2c(s1)CCCC2 [Example I-119, 4,5,6,7-Tetrahydro-benzothiazole-2-carboxylic acid 2-methyl-4-(1H-pyrazolo[3,4-d]pyrimidin-4-yl)-benzylamide]	1500 to 10000 nM	< 10 nM
Cc1cc(-c2ncnc3[nH]c(-c4cnn(C)c4)cc23)ccc1C(C)NC(=O)c1cc2c(s1)CCOC2 (centres unmarked) [Example I-113, N-(1-(2-methyl-4-(6-(1-methyl-1H-pyrazol-4-yl)-7H-pyrrolo[2,3-d]pyrimidin-4-yl)phenyl)ethyl)-6,7-dihydro-4H-thieno[3,2-c]pyran-2-carboxamide]	1500 to 10000 nM	< 10 nM
Cc1cc(-c2ncnc3nc(N4CCN(C)CC4)[nH]c23)ccc1CNC(=O)c1cnc(C(C)(C)C)s1 [Example I-47, 2-(tert-butyl)-N-(2-methyl-4-(8-(4-methylpiperazin-1-yl)-7H-purin-6-yl)benzyl)thiazole-5-carboxamide]	< 500 nM	< 10 nM
Cc1cc(-c2ncnc3cc(-c4cn[nH]c4)[nH]c23)ccc1CNC(=O)c1ncc(C(C)(C)C)s1 [Example I-41, N-(4-(6-(1H-pyrazol-4-yl)-5H-pyrrolo[3,2-d]pyrimidin-4-yl)-2-methylbenzyl)-5-(tert-butyl)thiazole-2-carboxamide]	500 to 1500 nM	< 10 nM
CC(C)c1csc(C(=O)NC2CCCc3cc(-c4ncnc5[nH]ncc45)ccc32)n1 (centres unmarked) [Example I-96, N-(6-(1H-pyrazolo[3,4-d]pyrimidin-4-yl)-1,2,3,4-tetrahydronaphthalen-1-yl)-4-isopropylthiazole-2-carboxamide]		10 to 99 nM
Cc1cc(-c2ncnc3nc(N4CCN(C)CC4)sc23)ccc1CNC(=O)c1cnc(C(C)(C)C)s1 [Example I-133, 2-(tert-butyl)-N-(2-methyl-4-(2-(4-methylpiperazin-1-yl)thiazolo[4,5-d]pyrimidin-7-yl)benzyl)thiazole-5-carboxamide]		10 to 99 nM
Cc1cc(-c2ncnc3c2cc(-c2cnn(C)c2)n3C)ccc1CNC(=O)c1cnc(C(C)(C)C)s1 [Example I-27, 2-(tert-butyl)-N-(2-methyl-4-(7-methyl-6-(1-methyl-1H-pyrazol-4-yl)-7H-pyrrolo[2,3-d]pyrimidin-4-yl)benzyl)thiazole-5-carboxamide]		10 to 99 nM
Cc1cc(-c2ncnc3[nH]ccc23)ccc1C(C)NC(=O)c1nc2c(s1)CCCC2 (centres unmarked) [Example I-77, N-(1-(2-methyl-4-(7H-pyrrolo[2,3-d]pyrimidin-4-yl)phenyl)ethyl)-4,5,6,7-tetrahydrobenzo[d]thiazole-2-carboxamide]		< 10 nM
Cc1cc(-c2ncnc3cc(-c4cnn(C)c4)n(C)c23)ccc1CNC(=O)c1cnc(C(C)(C)C)s1 [Example I-38, 2-(tert-butyl)-N-(2-methyl-4-(5-methyl-6-(1-methyl-1H-pyrazol-4-yl)-5H-pyrrolo[3,2-d]pyrimidin-4-yl)benzyl)thiazole-5-carboxamide]		< 10 nM
C[C@H](NC(=O)c1nc2c(s1)CCCC2)c1ccc(-c2ncnc3[nH]ccc23)cc1 [Example I-75, (S)—N-(1-(4-(7H-pyrrolo[2,3-d]pyrimidin-4-yl)phenyl)ethyl)-4,5,6,7-tetrahydrobenzo[d]thiazole-2-carboxamide]		1000 to 10000 nM
O=C(NC1CCCc2cc(-c3ncnc4[nH]ncc34)ccc21)c1ccc(C(F)(F)F)c(F)c1 (centres unmarked) [Example I-91, N-(6-(1H-pyrazolo[3,4-d]pyrimidin-4-yl)-1,2,3,4-tetrahydronaphthalen-1-yl)-3-fluoro-4-(trifluoromethyl)benzamide]		10 to 99 nM
CC(NC(=O)c1nc2c(s1)CCCC2)c1ccc(-c2ncnc3[nH]ccc23)cc1C(F)(F)F (centres unmarked) [Example I-79, N-(1-(4-(7H-pyrrolo[2,3-d]pyrimidin-4-yl)-2-(trifluoromethyl)phenyl)ethyl)-4,5,6,7-tetrahydrobenzo[d]thiazole-2-carboxamide]		10 to 99 nM
Cc1cc(-c2ncnc3nc(N4CCC(N(C)C)C4)[nH]c23)ccc1CNC(=O)c1cnc(C(C)(C)C)s1 (centres unmarked) [Example I-50, 2-(tert-butyl)-N-(4-(8-(3-(dimethylamino)pyrrolidin-1-yl)-7H-purin-6-yl)-2-methylbenzyl)thiazole-5-carboxamide]		< 10 nM
O=C(NCc1ccc(-c2ncnc3[nH]ccc23)cc1)c1cn2c(n1)CCCC2 [Example I-64, N-(4-(7H-pyrrolo[2,3-d]pyrimidin-4-yl)benzyl)-5,6,7,8-tetrahydroimidazo[1,2-a]pyridine-2-carboxamide]		> 10000 nM
CC(C)(C)c1ccc(C(=O)NCc2ccc(-c3ncnc4[nH]ccc34)cc2)cn1 [Example I-67, N-(4-(7H-pyrrolo[2,3-d]pyrimidin-4-yl)benzyl)-6-(tert-butyl)nicotinamide]		100 to 999 nM
Cc1cc(-c2ccnc3[nH]ncc23)ncc1CNC(=O)c1cc2c(s1)CCCC2 [Example I-117, N-((4-methyl-6-(1H-pyrazolo[3,4-b]pyridin-4-yl)pyridin-3-yl)methyl)-4,5,6,7-tetrahydrobenzo[b]thiophene-2-carboxamide]		< 10 nM
O=C(NCc1ccc(-c2ncnc3[nH]ncc23)cc1C(F)(F)F)c1nc2c(s1)CCCC2 [Example I-108, N-(4-(1H-pyrazolo[3,4-d]pyrimidin-4-yl)-2-(trifluoromethyl)benzyl)-4,5,6,7-tetrahydrobenzo[d]thiazole-2-carboxamide]		10 to 99 nM
Cn1cc(-c2cc3ncnc(-c4ccc5c(c4)CCCC5NC(=O)c4cnc(C(C)(C)C)s4)c3[nH]2)cn1 (centres unmarked) [Example I-37, 2-(tert-butyl)-N-(6-(6-(1-methyl-1H-pyrazol-4-yl)-5H-pyrrolo[3,2-d]pyrimidin-4-yl)-1,2,3,4-tetrahydronaphthalen-1-yl)thiazole-5-carboxamide]		< 10 nM
CC(C)(C)c1ncc(C(=O)N[C@@H]2CCCc3cc(-c4ccnc5[nH]ncc45)cnc32)s1 [Example I-144, (R)—N-(3-(1H-pyrazolo[3,4-b]pyridin-4-yl)-5,6,7,8-tetrahydroquinolin-8-yl)-2-(tert-butyl)thiazole-5-carboxamide]		100 to 999 nM
O=C(NC1CCCc2cc(-c3ncnc4[nH]ncc34)ccc21)c1nc2c(s1)CCC2 (centres unmarked) [Example I-130, N-(6-(1H-pyrazolo[3,4-d]pyrimidin-4-yl)-1,2,3,4-tetrahydronaphthalen-1-yl)-5,6-dihydro-4H-cyclopenta[d]thiazole-2-carboxamide]		10 to 99 nM
CC(C)(C)c1ccc(C(=O)NC2CCCc3cc(-c4ncnc5[nH]ncc45)ccc32)cc1 (centres unmarked) [Example I-88, N-(6-(1H-pyrazolo[3,4-d]pyrimidin-4-yl)-1,2,3,4-tetrahydronaphthalen-1-yl)-4-(tert-butyl)benzamide]		10 to 99 nM
O=C(NCc1ccc(-c2ncnc3[nH]ccc23)cc1)c1nc2c(s1)CCCC2 [Example I-62, N-(4-(7H-pyrrolo[2,3-d]pyrimidin-4-yl)benzyl)-4,5,6,7-tetrahydrobenzo[d]thiazole-2-carboxamide]		10 to 99 nM
